The test system of series [1] is CYP3A4. As to the kind of experiment: Metabolic activity of midazolam (CYP3A4 metabolic activity) in differentiated intestinal epithelial cell-like cells. Type of series: cell-based, human. To be noted: VD3 10 nmol/L; cells induced to differentiate using 8-Br-cAMP and IBMX; midazolam 100 μmol/L. How it is done: The metabolic activity was calculated from the amount of 1-hydroxymidazolam in the medium measured using a liquid chromatography-mass spectrometer (LC-MS/MS). After completion of the experiment on metabolism, protein quantification was carried out, and the metabolic activity was corrected by the amount of protein.

Series [2] concerns CYP3A4.
A further series has as its target T1, ALK4 (Homo sapiens, UniProt P36896).
T1 sequence (P36896 24-505): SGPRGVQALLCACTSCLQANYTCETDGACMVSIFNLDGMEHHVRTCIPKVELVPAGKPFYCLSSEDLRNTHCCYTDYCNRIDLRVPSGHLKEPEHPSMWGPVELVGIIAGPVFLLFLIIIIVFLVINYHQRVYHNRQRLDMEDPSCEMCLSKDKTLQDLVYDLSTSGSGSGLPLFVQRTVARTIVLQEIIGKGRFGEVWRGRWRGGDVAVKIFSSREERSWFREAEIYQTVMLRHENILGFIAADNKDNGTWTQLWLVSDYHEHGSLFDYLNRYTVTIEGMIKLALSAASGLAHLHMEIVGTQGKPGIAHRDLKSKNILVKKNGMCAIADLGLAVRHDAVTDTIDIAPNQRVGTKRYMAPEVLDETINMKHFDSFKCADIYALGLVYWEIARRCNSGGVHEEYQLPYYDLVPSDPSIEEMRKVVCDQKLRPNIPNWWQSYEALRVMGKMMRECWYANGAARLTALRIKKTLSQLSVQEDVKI
To be noted: cited from earlier work.

The target in another series is T2, ALK5 (Homo sapiens, UniProt P36897).
T2 sequence (P36897 34-503): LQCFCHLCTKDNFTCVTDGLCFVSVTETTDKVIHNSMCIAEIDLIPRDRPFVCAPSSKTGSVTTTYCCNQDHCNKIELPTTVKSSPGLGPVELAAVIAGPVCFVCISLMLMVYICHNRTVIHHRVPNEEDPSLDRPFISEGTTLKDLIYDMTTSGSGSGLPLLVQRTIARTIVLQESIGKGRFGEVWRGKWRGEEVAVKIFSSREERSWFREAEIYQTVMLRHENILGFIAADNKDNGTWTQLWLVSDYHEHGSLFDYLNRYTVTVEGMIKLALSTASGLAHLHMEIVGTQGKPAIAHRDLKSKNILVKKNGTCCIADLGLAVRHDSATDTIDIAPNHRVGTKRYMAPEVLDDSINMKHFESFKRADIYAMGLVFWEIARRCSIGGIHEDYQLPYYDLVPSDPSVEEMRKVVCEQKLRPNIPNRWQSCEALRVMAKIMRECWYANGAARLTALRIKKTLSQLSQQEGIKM
The settings on record: cited from earlier work.

The target in the next series is T3, ALK7 (Homo sapiens, UniProt Q8NER5).
T3 sequence (Q8NER5 21-493): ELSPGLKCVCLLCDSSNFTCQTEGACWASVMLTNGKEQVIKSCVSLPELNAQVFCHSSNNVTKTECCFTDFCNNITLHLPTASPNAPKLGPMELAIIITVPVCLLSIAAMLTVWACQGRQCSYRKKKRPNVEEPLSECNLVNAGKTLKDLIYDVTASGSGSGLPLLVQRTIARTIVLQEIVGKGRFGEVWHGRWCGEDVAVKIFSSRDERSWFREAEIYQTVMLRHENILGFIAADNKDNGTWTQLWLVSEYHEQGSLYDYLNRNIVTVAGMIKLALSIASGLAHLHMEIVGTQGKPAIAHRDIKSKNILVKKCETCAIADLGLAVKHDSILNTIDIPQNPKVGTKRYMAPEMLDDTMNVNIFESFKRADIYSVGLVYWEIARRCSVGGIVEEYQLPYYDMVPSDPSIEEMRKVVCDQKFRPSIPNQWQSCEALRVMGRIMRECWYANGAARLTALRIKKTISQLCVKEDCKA
The settings on record: cited from earlier work.

A further series deals with OATP. Kind of series: Uptake of estrone-3-sulfate (ES) (OATP transport activity). Type of series: cell-based, human. The settings on record: BSP 0.2 mmol/L; cells induced to differentiate using 8-Br-cAMP and IBMX. As for the experimental part: (§1) After completion of induction of differentiation, incubation was performed at 37° C. or 4° C. with an uptake solution containing tritium-labeled Gly-Sar or ES. In the Gly-Sar uptake experiment, there was used an uptake solution containing 137 mmol/L sodium chloride, 5.4 mmol/L potassium chloride, 0.81 mmol/L magnesium sulfate, 0.44 mmol/L potassium dihydrogen phosphate, 0.34 mmol/L disodium hydrogen phosphate, 1.3 mmol/L calcium chloride, 4.2 mmol/L sodium hydrogen carbonate, 5.6 mmol/L D-glucose and 10 mmol/L MES and having a pH of 6.0. In the ES uptake experiment, there was used an uptake solution containing 137 mmol/L sodium chloride, 5.4 mmol/L potassium chloride, 0.81 mmol/L magnesium sulfate, 0.44 mmol/L potassium dihydrogen phosphate, 0.34 mmol/L disodium hydrogen phosphate, 1.3 mmol/L calcium chloride, 4.2 mmol/L sodium hydrogen carbonate, 5.6 mmol/L D-glucose, and 10 mmol/L HEPES and having a pH of 7.4. After completion of incubation, uptake was stopped by washing the cells with the ice-cold uptake solution. Thereafter, the cells were solubilized with a 0.2 M sodium hydroxide solution containing 0.5% sodium dodecyl sulfate (SDS), and a scintillation solution was added. The intracellular uptake of Gly-Sar or ES was calculated from the radioactivity measured using a liquid scintillation counter.

Another series has as its target T4, PEPT1 (Homo sapiens, UniProt P46059).
T4 construct: uptake of glycylsarcosine (Gly-Sar) in the differentiated intestinal epithelial cell-like cells (PEPT1 transport activity); endogenous in cells; host or cells: human iPS cell (iPS-51: Windy)-derived intestinal epithelial cell-like cells
T4 sequence (P46059 1-708): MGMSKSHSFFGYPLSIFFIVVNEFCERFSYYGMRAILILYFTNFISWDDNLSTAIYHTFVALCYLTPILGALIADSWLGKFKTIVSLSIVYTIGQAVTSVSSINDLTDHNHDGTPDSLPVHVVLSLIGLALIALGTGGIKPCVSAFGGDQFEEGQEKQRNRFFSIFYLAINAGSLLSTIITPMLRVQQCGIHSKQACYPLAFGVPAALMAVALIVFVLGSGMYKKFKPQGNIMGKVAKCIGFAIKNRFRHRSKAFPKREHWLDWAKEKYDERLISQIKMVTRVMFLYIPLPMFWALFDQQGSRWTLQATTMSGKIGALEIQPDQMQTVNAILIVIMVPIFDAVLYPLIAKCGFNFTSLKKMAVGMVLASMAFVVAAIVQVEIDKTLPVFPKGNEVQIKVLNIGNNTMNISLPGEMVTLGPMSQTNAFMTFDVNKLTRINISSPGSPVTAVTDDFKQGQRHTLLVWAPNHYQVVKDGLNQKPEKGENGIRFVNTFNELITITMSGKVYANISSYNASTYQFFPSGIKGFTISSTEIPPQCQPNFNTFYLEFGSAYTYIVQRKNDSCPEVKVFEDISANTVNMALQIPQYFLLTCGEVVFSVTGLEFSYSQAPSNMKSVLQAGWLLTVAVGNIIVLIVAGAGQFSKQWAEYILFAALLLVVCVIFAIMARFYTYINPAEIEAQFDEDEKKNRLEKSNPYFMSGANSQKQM
Kind of series: Uptake of glycylsarcosine (Gly-Sar) (PEPT1 transport activity). The settings on record: ibuprofen 3 mmol/L. It is filed as cell-based. How it is done: as §1

Another series concerns mucin 2. As to the kind of experiment: Expression (mRNA level) of mucin 2 in iPS cell-derived intestinal epithelial cell-like cells. To be noted: for expression (mRNA level) of mucin 2 (mucosa protecting action): added for 6 days, irsogladine 10, 40 μM, rebamipide 50, 100, 250, 1000 μM, vs control.

Regarding `C=C1/C(=C\C=C2/CCC[C@]3(C)[C@@H]([C@H](C)CCCC(C)(C)O)CC[C@@H]23)C[C@@H](O)C[C@@H]1O` [1α,25-dihydroxyvitamin D3], the “activity of CYP3A4 (1-hydroxymidazolam formation) upon inducer treatment” value in the series on CYP3A4 [1] is “significantly increased”. The “induction of CYP3A4 expression” value in the series on CYP3A4 [2] is on record as “observed”.

With `Cc1cccc(-c2nn(C(=S)Nc3ccccc3)cc2-c2ccnc3ccccc23)n1` [A-83-01], on ALK4, the “inhibitory activity against TGF-β receptor ALK4” value is “shows inhibitory activity”. Further, the “inhibitory activity against TGF-β receptor ALK5” value on ALK5 is “shows inhibitory activity”. Besides, the “inhibitory activity against TGF-β receptor ALK7” value at ALK7 is “shows inhibitory activity”.

Regarding `O=C1OC(c2ccc(O)c(S(=O)(=O)O)c2)(c2ccc(O)c(S(=O)(=O)O)c2)c2c(Br)c(Br)c(Br)c(Br)c21` [BSP, bromsulphthalein], in the series on OATP, the “uptake of ES in the presence of inhibitor” value is “significantly reduced”.

Regarding `CC(C)Cc1ccc(C(C)C(=O)O)cc1` (centres unmarked) [ibuprofen], the “Gly-Sar uptake in the presence of inhibitor” value on PEPT1 (cells by the conventional differentiation method) is on record as “significantly reduced”; at PEPT1 (cells induced to differentiate using 8-Br-cAMP and IBMX), “significantly reduced”.

On to `Nc1nc(N)nc(-c2cc(Cl)ccc2Cl)n1` [irsogladine], for which, in the series on mucin 2, the “expression (mRNA level) of mucin 2 (mucosa protecting action)” value was “increased”.

`CC(C(=O)O)c1cccc(C(=O)c2ccccc2)c1` (centres unmarked) [ketoprofen]: in the series on mucin 2 (ketoprofen 200 μM for 6 days, excepted from the decrease seen with NSAIDs), the “expression (mRNA level) of mucin 2 (mucosa damaging action)” value was “except for ketoprofen-200”.

As to `O=C(NC(Cc1cc(=O)[nH]c2ccccc12)C(=O)O)c1ccc(Cl)cc1` (centres unmarked) [rebamipide], in the series with mucin 2, the “expression (mRNA level) of mucin 2 (mucosa protecting action)” value is reported as “increased”.

Values taken from patent US11499963B2, “Induction of differentiation of induced pluripotent stem cells into intestinal epithelial cells” (PUBLIC UNIVERSITY CORPORATION NAGOYA CITY UNIVERSITY, priority 2016, dated 2022).
